Experimental findings from patent US6875760B2 (Novo Nordisk A/S, priority 1999, dated 2005) are described below.

The structures appear in SMILES notation.

In one data set the target is T1, human glucagon receptor (Homo sapiens, UniProt P47871).
T1 construct: expressed in transfected cells; host or cells: BHK (baby hamster kidney) cells
Briefly: Glucagon Binding Assay (III). Particulars: Glu Bd Assay (III) IC50 (nM), BHK cell membranes, WGA SPA beads, 125I-glucagon. Summed up: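 Membranes from BHK cells transfected with the human receptor, prepared at 4 °C, were used in a WGA-bead scintillation proximity binding format. Plates were shaken for 4 hours, left to settle 8–48 hours and then counted. Non-specific binding was defined with 500 nM glucagon.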

The target of data set [1] is T2, cloned human glucagon receptor (Homo sapiens, UniProt P47871).
T2 construct: expressed in transfected cells; plasma membrane preparation
T2 sequence (P47871 26-477): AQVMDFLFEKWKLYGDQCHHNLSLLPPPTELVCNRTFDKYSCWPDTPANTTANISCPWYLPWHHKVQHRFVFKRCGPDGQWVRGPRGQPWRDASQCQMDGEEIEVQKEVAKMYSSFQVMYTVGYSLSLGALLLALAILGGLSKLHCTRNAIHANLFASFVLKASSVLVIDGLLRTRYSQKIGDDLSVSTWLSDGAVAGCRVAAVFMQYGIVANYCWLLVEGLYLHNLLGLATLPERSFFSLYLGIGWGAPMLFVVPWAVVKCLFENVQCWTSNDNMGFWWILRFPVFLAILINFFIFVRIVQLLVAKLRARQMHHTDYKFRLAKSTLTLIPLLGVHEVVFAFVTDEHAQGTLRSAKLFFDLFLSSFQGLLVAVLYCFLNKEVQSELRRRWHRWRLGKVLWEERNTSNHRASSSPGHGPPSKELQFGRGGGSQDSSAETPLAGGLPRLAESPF
Briefly: Glucagon Binding Assay (I). To be noted: for IC50: plasma membranes of BHK cells expressing the receptor, 125I-glucagon tracer, read-out: Glu Bd Assay (I) IC50. How it is done:
Binding of compounds to the glucagon receptor was determined in a competition binding assay using the cloned human glucagon receptor.
Receptor binding was assayed using cloned human receptor (Lok et al., Gene 140, 203-209 (1994)). The receptor inserted in the pLJ6′ expression vector using EcoRI/SSt1 restriction sites (Lok et al.) was expressed in a baby hamster kidney cell line (A3 BHK 570-25).
Plasma membranes were prepared by growing cells to confluence, detaching them from the surface and resuspending the cells in cold buffer (10 mM tris/HCl, pH 7.4 containing 30 mM NaCl, 1 mM dithiothreitol, 5 mg/L leupeptin (Sigma), 5 mg/L pepstatin (Sigma), 100 mg/L bacitracin (Sigma) and 15 mg/L recombinant aprotinin (Novo Nordisk A/S)), homogenization by two 10-s bursts using a Polytron PT 10-35 homogenizer (Kinematica), and centrifugation upon a layer of 41 w/v % sucrose at 95.000×g for 75 min. The white band located between the two layers was diluted in buffer and centrifuged at 40.000×g for 45 min. The precipitate containing the plasma membranes was suspended in buffer and stored at −80° C. until use. Glucagon was iodinated according to the chloramine T method (Hunter and Greenwood, Nature 194, 495 (1962)) and purified using anion exchange chromatography (Jørgensen et al., Hormone and Metab. Res. 4, 223-224 (1972). The specific activity was 460 μCi/μg on the day of iodination. Tracer was stored at −18° C. in aliquots and were used immediately after thawing.
Binding assays were carried out in triplicate in filter microtiter plates (MADV N65, Millipore). The buffer used in this assay was 50 mM HEPES, 5 mM EGTA, 5 mM MgCl2, 0.005% tween 20, pH 7.4. Glucagon was dissolved in 0.05 M HCl, added an equal amount (w/w) of HSA and freeze-dried. On the day of use, it was dissolved in water and diluted in buffer to the desired concentrations.
Test compounds were dissolved and diluted in DMSO. 140 μL buffer, 25 μL glucagon or buffer, and 10 μL DMSO or test compound were added to each well. Tracer (50.000 cpm) was diluted in buffer and 25 μL were added to each well. 1-4 μg freshly thawed plasma membrane protein diluted in buffer was then added in aliquots of 25 μL to each well. Plates were incubated at 30° C. for 2 hours. Non-specific binding was determined with 10^−6 M of glucagon. Bound tracer and unbound tracer were then separated by vacuum filtration (Millipore vacuum manifold). The plates were washed with 2×100 μL buffer/well. The plates were air dried for a couple of hours, whereupon the filters were separated from the plates using a Millipore Puncher. The filters were counted in a gamma counter.

T1 sequence (P47871 26-477): as above

As for `CC(C)(C)[C@H]1CC[C@H](N(Cc2ccc(C(=O)NCCC(=O)O)cc2)C(=O)Nc2ccc(OC(F)(F)F)cc2)CC1` [Example 92, 3-{4-[1-(4-trans-tert-Butylcyclohexyl)-3-(4-trifluoromethoxyphenyl)ureidomethyl]benzoylamino}propionic acid], the melting point was in the range of 152 to 154 °C. The concentration for half-maximal inhibition (IC50) at human glucagon receptor is 47 nM. As to `CC(C)(C)C1CCC(N(Cc2ccc(C(=O)NCCC(=O)O)cc2)C(=O)Cc2csc3ccccc23)CC1` (centres unmarked) [Example 3, 3-(4-{[N-(2-Benzo[b]thiophen-3-yl-acetyl)-N-(4-tert-butylcyclohexyl)amino]methyl}benzoylamino)propionic acid], the “Glu Bd Assay (I) Effect, 100-Residual binding (%) at 1 μM” value in data set [1] was determined as 26.2%. With `COC(C)(C)C1CCC(N(Cc2ccc(C(=O)NCCC(=O)O)cc2)C(=O)Nc2ccc(OC(F)(F)F)cc2)CC1` (centres unmarked), in data set [1], the IC50 came out at 1280 nM.

`CCCCC(CC)CN(Cc1ccc(C(=O)NCCC(=O)O)cc1)C(=O)Nc1ccc(-c2ccccc2)cc1` (centres unmarked) [Example 10, 3-{4-[3-Biphenyl-4-yl-1-(2-ethylhexyl)ureidomethyl]benzoylamino}propionic acid]: the IC50 in data set [1] worked out at 42 nM. Consider `CC(C)(C)c1ccc(CN(Cc2ccc(C(=O)NCCC(=O)O)cc2)C(=O)c2cc3ccccc3s2)cc1` [Example 7, 3-(4-{[N-(Benzo[b]thiophen-2-carbonyl)-N-(4-tert-butylbenzyl)amino]methyl}benzoylamino)propionic acid], for which, in data set [1], the “Glu Bd Assay (I) Effect, 100-Residual binding (%) at 1 μM” value stood at 30.4% and the half-inhibitory concentration (IC50) was determined as 845 nM. Turning to `O=C(O)CCNC(=O)c1cccc(CN(CC(c2ccccc2)c2ccccc2)C(=O)c2csc3ccc(Cl)cc23)c1` [Example 9, 3-(3-{[N-(5-Chlorobenzo[b]thiophene-3-carbonyl)-N-(2,2-diphenylethyl)amino]methyl}benzoylamino)propionic acid], the “Glu Bd Assay (I) Effect, 100-Residual binding (%)” value in data set [1] (at 500 nM) is reported as 56.4% (at 500.
